Measured values from patent US20250339415A1, “DISULFIDE COMPOUNDS AS MEDICAMENTS” (CYTACOAT AB, priority 2021, published 2025).
In brackets after ≈: the same amount, converted by molar mass. Blank lines part the entries; values can stand above or below the molecule they belong to.

Tests used:
Assay type in all cases: cell-based
E. coli = experiment: Combination therapy: Gentamycin with PDEA, visible growth; settings: No PDEA
Protocol: (§1) Different concentrations of Gentamycin in Mueller Hinton were prepared in 3 different concentrations of PDEA. E. coli and S. aureus were inoculated (10^5) and were incubated O/N.
(§2) Readouts were “Clear” and “Foggy”.

S. aureus = experiment: as above; settings: No PDEA
Protocol: as §1, §2

Candida albicans = experiment: Minimum inhibitory concentration (MIC), visible growth, YPD broth
Protocol: (§3) • 1. Using a sterile inoculating loop, transfer bacteria/Candida albicans from frozen stock culture and streak them on a fresh LA plate. • 2. Incubate the plate at 37° C. overnight (o/n) (18-24 h).
(§4) • 1. Prepare bacterial culture by adding 20 ml Mueller Hinton broth (*) to a 250-ml Erlenmeyer flask with sidearm. • 2. Using a sterile inoculating loop, pick approximately 10 colonies from the o/n bacterial culture and transfer bacteria to the flask. • 3. Incubate the E-flask with bacteria on a rotating shaker at 37° C. until OD590=0.40. This OD should equal an approximate bacterial count of 1×10^8 cfu/ml (**) • This is measured using a colorimeter (or spectrophotometer). Set reference and press R (=reference) first, then measure the bacterial culture by pressing T (=test). • 4. At OD590 0.40, serially dilute the bacterial suspension 1:10 000 in Mueller Hinton broth to obtain a bacterial target concentration of 1×10^4 cfu/ml. Determine the initial inoculation by serially diluting 0.1 ml in 0.9 ml blanks of sterile PBS and plating 0.1 ml aliquots to LA plates, preferably. • 5. Different concentrations of the tested compound are prepared in 0.6-0.8 ml of the final dilution of bacterial suspension and placed in 2-ml test tubes. • 6. Incubate test tubes in an orbital shaker incubator at 37° C. for 24 h.
(§5) • 7. Analyze visible growth, i.e. “Foggy” or “Clear”. MIC is being defined as the interval between the highest “Foggy” and the lowest “Clear” concentration of the compound.
(*) When testing Candida albicans, Yeast extract Peptone Dextrose (YPD) broth is being used.
(**) For Candida albicans it is equal to 1×10^7
Different concentrations of PDEA were also prepared in Yeast extract Peptone Dextrose (YPD) broth. Candida albicans were inoculated to a concentration of 20 000 CFU/ml and incubated at 37° C. for 24 hours. Readouts were “Clear” and “Foggy”.
Different concentrations of the quaternary ammonium PDEA (Example 2) were also prepared in Yeast extract Peptone Dextrose (YPD) broth. Candida albicans were inoculated to a concentration of 20 000 CFU/ml and incubated at 37° C. for 24 hours. Readouts were “Clear” and “Foggy”.
Different concentrations of the Para position-PDEA” is (S)-4-pyridylthio cysteamine were also prepared in Yeast extract Peptone Dextrose (YPD) broth. Candida albicans were inoculated to a concentration of 20 000 CFU/ml and incubated at 37° C. for 24 hours. Readouts were “Clear” and “Foggy”.
Different concentrations of “Carboxylic acid PDEA” is 3-(2-Pyridyldithio)propanoic acid (CAS: 68617-64-1) were also prepared in Yeast extract Peptone Dextrose (YPD) broth. Candida albicans were inoculated to a concentration of 20 000 CFU/ml and incubated at 37° C. for 24 hours. Readouts were “Clear” and “Foggy”.

[1] = tested on: Pseudomonas aeruginosa PA02; experiment: Minimum inhibitory concentration (MIC), visible growth
Protocol: as §3, §4, §5
(§6) Different concentrations of PDEA (Example 1) in Mueller Hinton medium were prepared. Bacteria were inoculated to a concentration of 20 000 CFU/ml and incubated at 37° C. for 24 hours. Minimum inhibitory concentrations (MICs) were determined by analyzing visible growth, i.e., readouts were “Clear” and “Foggy”.
(§7) Different concentrations of the quaternary ammonium PDEA (Example 2) in Mueller Hinton medium were prepared. Bacteria were inoculated to a concentration of 20 000 CFU/ml and incubated at 37° C. for 24 hours. Minimum inhibitory concentrations (MICs) were determined by analyzing visible growth, i.e., readouts were “Clear” and “Foggy”.
(§8) Different concentrations of this compound in Mueller Hinton medium were prepared. Bacteria were inoculated to a concentration of 20 000 CFU/ml and incubated at 37° C. for 24 hours. Minimum inhibitory concentrations (MICs) were determined by analyzing visible growth, i.e., readouts were “Clear” and “Foggy”.
(§9) Different concentrations of this compound were prepared in Mueller Hinton broth. Bacteria were inoculated to a concentration of 20 000 CFU/ml and incubated at 37° C. for 24 hours. Minimum inhibitory concentrations (MICs) were determined by analyzing visible growth, i.e., readouts were “Clear” and “Foggy”.

[2] = tested on: Enterococcus faecium #11 (KI, Clinical Isolate); experiment: as above
Protocol: as §3, §4, §5, §6, §7, §8, §9

[3] = tested on: Klebsiella pneumoniae AO15200; experiment: as above
Protocol: as §3, §4, §5, §6, §7, §8, §9

Escherichia coli CFT073 = experiment: as above
Protocol: as §3, §4, §5, §6, §7, §8, §9

[4] = tested on: Staphylococcus epidermidis Se19 (Clinical Isolate, Jan Ingemar Falk); experiment: as above
Protocol: as §3, §4, §5, §6, §7, §8, §9

[5] = tested on: Enterococcus faecalis #28 (KI, Clinical Isolate); experiment: as above
Protocol: as §3, §4, §5, §6, §7, §8, §9

[6] = tested on: Staphylococcus aureus B5381; experiment: as above
Protocol: as §3, §4, §5, §6, §7, §8, §9

Molecule: Gentamycin
Visible growth readout (Clear/Foggy) (E. coli; Gentamycin 0.0156 μg/ml): Foggy
Visible growth readout (Clear/Foggy) (E. coli; Gentamycin 0.03125 μg/ml): Foggy
Visible growth readout (Clear/Foggy) (E. coli; Gentamycin 0.0625 μg/ml): Foggy
Visible growth readout (Clear/Foggy) (E. coli; Gentamycin 0.125 μg/ml): Foggy
Visible growth readout (Clear/Foggy) (E. coli; Gentamycin 0.25 μg/ml): Foggy
Visible growth readout (Clear/Foggy) (E. coli; Gentamycin 0.5 μg/ml): Foggy
Visible growth readout (Clear/Foggy) (E. coli; Gentamycin 1 μg/ml): Clear
Visible growth readout (Clear/Foggy) (E. coli; Gentamycin 2 μg/ml): Clear
Visible growth readout (Clear/Foggy) (E. coli; Gentamycin 4 μg/ml): Clear
Visible growth readout (Clear/Foggy) (E. coli; Gentamycin 8 μg/ml): Clear
Visible growth readout (Clear/Foggy) (E. coli; Gentamycin 16 μg/ml): Clear
Visible growth readout (Clear/Foggy) (E. coli; Gentamycin 32 μg/ml): Clear
Visible growth readout (Clear/Foggy) (E. coli; Gentamycin 64 μg/ml): Clear
Visible growth readout (Clear/Foggy) (E. coli; Gentamycin 128 μg/ml): Clear
Visible growth readout (Clear/Foggy) (E. coli; Gentamycin 256 μg/ml): Clear
Visible growth readout (Clear/Foggy) (S. aureus; Gentamycin 0.0156 μg/ml): Foggy
Visible growth readout (Clear/Foggy) (S. aureus; Gentamycin 0.03125 μg/ml): Foggy
Visible growth readout (Clear/Foggy) (S. aureus; Gentamycin 0.0625 μg/ml): Foggy
Visible growth readout (Clear/Foggy) (S. aureus; Gentamycin 0.125 μg/ml): Foggy
Visible growth readout (Clear/Foggy) (S. aureus; Gentamycin 0.25 μg/ml): Clear
Visible growth readout (Clear/Foggy) (S. aureus; Gentamycin 0.5 μg/ml): Clear
Visible growth readout (Clear/Foggy) (S. aureus; Gentamycin 1 μg/ml): Clear
Visible growth readout (Clear/Foggy) (S. aureus; Gentamycin 2 μg/ml): Clear
Visible growth readout (Clear/Foggy) (S. aureus; Gentamycin 4 μg/ml): Clear
Visible growth readout (Clear/Foggy) (S. aureus; Gentamycin 8 μg/ml): Clear
Visible growth readout (Clear/Foggy) (S. aureus; Gentamycin 16 μg/ml): Clear
Visible growth readout (Clear/Foggy) (S. aureus; Gentamycin 32 μg/ml): Clear
Visible growth readout (Clear/Foggy) (S. aureus; Gentamycin 64 μg/ml): Clear
Visible growth readout (Clear/Foggy) (S. aureus; Gentamycin 128 μg/ml): Clear
Visible growth readout (Clear/Foggy) (S. aureus; Gentamycin 256 μg/ml): Clear

MIC (Candida albicans; Candida albicans, YPD broth, 20 000 CFU/ml, 37° C., 24 hours, read-out: MIC): 1000 to 2000 µM (≈ 215 to 431 µg/mL)
MIC ([1]; Pseudomonas aeruginosa, PA02, Mueller Hinton, 20 000 CFU/ml, 37° C., 24 hours, read-out: MIC): 6400 to 12800 µM (≈ 1380 to 2760 µg/mL)
MIC ([2]; Enterococcus faecium, Mueller Hinton, 20 000 CFU/ml, 37° C., 24 hours, read-out: MIC): 100 to 250 µM (≈ 21.5 to 53.8 µg/mL)
MIC ([3]; Klebsiella pneumoniae, AO15200, Mueller Hinton, 20 000 CFU/ml, 37° C., 24 hours, read-out: MIC): 3200 to 6400 µM (≈ 689 to 1380 µg/mL)
MIC (Escherichia coli CFT073; Escherichia coli, CFT073, Mueller Hinton, 20 000 CFU/ml, 37° C., 24 hours, read-out: MIC): 2000 to 4000 µM (≈ 431 to 861 µg/mL)
MIC ([4]; Staphylococcus epidermidis, Mueller Hinton, 20 000 CFU/ml, 37° C., 24 hours, read-out: MIC): 100 to 250 µM (≈ 21.5 to 53.8 µg/mL)
MIC ([5]; Enterococcus faecalis, Mueller Hinton, 20 000 CFU/ml, 37° C., 24 hours, read-out: MIC): 250 to 500 µM (≈ 53.8 to 108 µg/mL)
Molecule: O=C(O)CCSSc1ccccn1 [Example 4, 3-(2-Pyridyldithio)propanoic acid]
visible growth readout (Candida albicans; 0.05 mM): Foggy
visible growth readout (Candida albicans; 0.1 mM): Foggy
visible growth readout (Candida albicans; 0.25 mM): Foggy
visible growth readout (Candida albicans; 0.5 mM): Foggy
visible growth readout (Candida albicans; 1 mM): Foggy
visible growth readout (Candida albicans; 2 mM): Clear
visible growth readout (Candida albicans; 4 mM): Clear
visible growth readout ([1]; 0.05 mM): Foggy
visible growth readout ([1]; 0.1 mM): Foggy
visible growth readout ([1]; 0.25 mM): Foggy
visible growth readout ([1]; 0.5 mM): Foggy
visible growth readout ([1]; 0.8 mM (second series)): Foggy
visible growth readout ([1]; 1 mM): Foggy
visible growth readout ([1]; 2 mM): Foggy
visible growth readout ([1]; 3.2 mM (second series)): Foggy
visible growth readout ([1]; 4 mM): Foggy
visible growth readout ([1]; 6.4 mM (second series)): Foggy
visible growth readout ([1]; 12.8 mM (second series)): Clear
visible growth readout ([1]; 0.1.6 mM (second series)): Foggy
visible growth readout ([2]; 0.05 mM): Foggy
visible growth readout ([2]; 0.1 mM): Foggy
visible growth readout ([2]; 0.25 mM): Clear
visible growth readout ([2]; 0.5 mM): Clear
visible growth readout ([2]; 1 mM): Clear
visible growth readout ([2]; 2 mM): Clear
visible growth readout ([2]; 4 mM): Clear
visible growth readout ([3]; 0.05 mM): Foggy
visible growth readout ([3]; 0.1 mM): Foggy
visible growth readout ([3]; 0.25 mM): Foggy
visible growth readout ([3]; 0.5 mM): Foggy
visible growth readout ([3]; 0.8 mM (second series)): Foggy
visible growth readout ([3]; 1 mM): Foggy
visible growth readout ([3]; 2 mM): Foggy
visible growth readout ([3]; 3.2 mM (second series)): Foggy
visible growth readout ([3]; 4 mM): Foggy
visible growth readout ([3]; 6.4 mM (second series)): Clear
visible growth readout ([3]; 12.8 mM (second series)): Clear
visible growth readout ([3]; 0.1.6 mM (second series)): Foggy
visible growth readout (Escherichia coli CFT073; 0.05 mM): Foggy
visible growth readout (Escherichia coli CFT073; 0.1 mM): Foggy
visible growth readout (Escherichia coli CFT073; 0.25 mM): Foggy
visible growth readout (Escherichia coli CFT073; 0.5 mM): Foggy
visible growth readout (Escherichia coli CFT073; 1 mM): Foggy
visible growth readout (Escherichia coli CFT073; 2 mM): Foggy
visible growth readout (Escherichia coli CFT073; 4 mM): Clear
visible growth readout ([4]; 0.05 mM): Foggy
visible growth readout ([4]; 0.1 mM): Foggy
visible growth readout ([4]; 0.25 mM): Clear
visible growth readout ([4]; 0.5 mM): Clear
visible growth readout ([4]; 1 mM): Clear
visible growth readout ([4]; 2 mM): Clear
visible growth readout ([4]; 4 mM): Clear
visible growth readout ([5]; 0.05 mM): Foggy
visible growth readout ([5]; 0.1 mM): Foggy
visible growth readout ([5]; 0.25 mM): Foggy
visible growth readout ([5]; 0.5 mM): Clear
visible growth readout ([5]; 1 mM): Clear
visible growth readout ([5]; 2 mM): Clear
visible growth readout ([5]; 4 mM): Clear
visible growth readout ([6]; 0.05 mM): Foggy
visible growth readout ([6]; 0.1 mM): Foggy
visible growth readout ([6]; 0.25 mM): Foggy
visible growth readout ([6]; 0.5 mM): Foggy
visible growth readout ([6]; 1 mM): Clear
visible growth readout ([6]; 2 mM): Clear
visible growth readout ([6]; 4 mM): Clear
